Here are results for one compound from PMC5636194 (Journal of nanomedicine & nanotechnology, 2017).

The term AUC denotes concentration integrated over time. High values mean high exposure, low ones low exposure.

Data set [1] concerns U87 cells. The data set is described as follows: Cell viability (calcein AM). It is filed as cell-based. The protocol:
(§1) U87 and T98G cells were seeded at 750 cells/well in 100 µL DMEM high glucose with pyruvate (10% FBS and 1% Pen/Strep) in a black, 96-well flat-bottomed plate, and allowed to attached overnight. […] The next morning, the plates were washed with 200 µL/well 1X PBS, which was removed and replaced with 95 µL calcein AM reagent at 1:1000 dilution in 1X PBS.

Data set [2] deals with T98G cells. In words: Cell viability (calcein AM). In kind it is cell-based. The conditions noted are these: 10 µM. The protocol:
as §1

The subject of data set [3] is U87 cells. The data set is described as follows: ATP quantification (luciferase luminescence). It is filed as cell-based. The conditions noted are these: 10 µM, 24 hours. The protocol: U87 and T98G cells were seeded into 6-well plates at 200,000 cells/well in 1 mL DMEM high glucose with pyruvate (10% FBS and 1% Pen/Strep) and allowed to grow overnight. […] Following a modified protocol outlined in an ATP kit obtained from Life Technologies, cells were washed twice with PBS, then lysed with 150 uL of ATP assay buffer (500 mM Tricine buffer, pH 7.8, 100 mM MgSO4, 2 mM EDTA, and 2 mM sodium azide) containing 1% Triton X-100, dislodged by scraping with a pipette tip, and transferred to 1.5 mL Eppendorf tubes on ice for 5 minutes. 10 uL of cell lysate was then added in triplicate to a white 96-well plate, also containing ATP standards. Before reading the plate, 100 uL of ATP assay buffer containing 90 µg/mL D-luciferin, 20 µM DTT, and 25 µg/mL Luciferase) was added to each well. Luminescence was calculated using a Tecan Infinite F200 plate reader. Protein concentration was also determined using the Pierce 660 nm Protein Assay (660 nm absorbance), with ATP production standardized to protein values.

For data set [4], the system named is U87 cells. In words: Cellular bioenergetics analysis (Seahorse XF24 oxygen consumption). In kind it is cell-based. The protocol:
(§2) Assay was performed according to manufacturer’s directions and as previously described, where U87 and T98G cells were plated at 30,000 cells/well in an XF24 plate and allowed to attach overnight. Media was replaced an hour before onset of the assay with XF24 media, and then, rotenone/antimycin A mix, FCCP, and oligomycin were diluted in XF24 media and loaded into the provided cartridge to obtain final concentrations of 100 nM, 300 nM, and 1 µg/mL, respectively. […] Addition of the compounds into the medium took place at designated time points, and oxygen consumption was examined using a Seahorse Bioscience XF24 Extracellular Flux Analyzer.

Data set [5] concerns T98G cells. The data set is described as above. In kind it is cell-based. The protocol: as §2
The test system of data set [6] is U87 cells. In words: Liquid colony formation assay (4 weeks). In kind it is cell-based. The conditions noted are these: 10 µM. On the procedure:
(§3) Cells were seeded into 6-well culture plates (Falcon) at a concentration of 50 cells/well in 1 mL DMEM high glucose with pyruvate (Gibco), 10% FBS, and 1% Pen/Strep. Treatments were added to each well to obtain a pre-determined final concentration in 2 mL/well total volume. Plates were incubated for 4 weeks undisturbed, and only carefully received a media change at week 3 with or without drug treatments if colonies were not visible. Following completion of the 4-week incubation period, colonies were stained as previously described. […] Stained colonies were counted, with the number and size documented.

Data set [7] deals with T98G cells. The data set is described as follows: Liquid colony formation assay (4 weeks). It is filed as cell-based. The conditions noted are these: 10 µM. On the procedure:
as §3

Data set [8] relates to T98G cells. The data set is described as follows: Glucose quantification in medium. The conditions noted are these: 10 µM, 48 and 72 hours. In kind it is cell-based. The protocol: Glucose was measured per instructions from a kit manufactured by Sigma-Aldrich. Briefly, 200,000 U87 and T98G cells were seeded into a 6-well plate and incubated overnight. […] After designated times, medium was removed, diluted 1:100 in glucose assay buffer (glucose oxidase, horseradish peroxidase, and O-dianisidine), then added to a 96-well plate at a 1:3 dilution in glucose assay buffer. The plate was then incubated at 37°C and 5% CO2 for 30 minutes, and the reactions halted by the addition of 66 uL of 12 N sulfuric acid. Absorbance values were evaluated at 540 nm on a Biotek Synergy 2 plate reader.

A short description of data set [9]: In vivo bio-distribution (LC-MS/MS, noncompartmental PK). More on the design: species or system mice (CD-1). The conditions noted are these: female, mouse; CD-1 mice, single IV dose 8 mg/kg, plasma.
Description: Female mice (CD-1 background, 5–6 weeks old) were used for all bio-distribution studies. […] Plasma was processed from whole blood by centrifugation of EDTA-treated blood for 10 minutes at 9,600g, then stored at −80°C until analyzed. In addition, kidneys, spleen, lung, liver, and brain were removed, weighed; flash frozen, then homogenized in a 3-fold volume of PBS for further analysis and stored at −80°C. […] Next, 100 µL of each sample (plasma or tissue homogenate) was crashed with 200 µL methanol+0.1% formic acid+50 ng/mL (final concentration) n-benzyl benzamide internal standard, vortexed for 15 seconds, incubated at room temperature for 10 minutes, then centrifuged at 16,000g for 5 minutes at 4°C. 250 µL of supernatant was then transferred to an Eppendorf tube, centrifuged as previously described, then 195 µL of supernatant transferred to an HPLC vial with insert for analysis by HPLC-MS/MS (AB Sciex 3200 QTrap). […] The limit of detection (LOD) was set at the standard concentration providing an analyte signal three-fold above blank matrix. […] Per UTSW’s lab SOPs, samples falling below LOQ and above LOD are assigned a value of ½LOQ. Samples falling below LOQ and LOD are assigned a value of 0.

With `CN(C)c1ccc2nc3ccc(=[N+](C)C)cc-3sc2c1` [MB, methylene blue], in the data set on U87 cells [1] (10 µM, 24, 72 and […]), the “Cell viability over time course” value is “did not induce cell death until 72 and 144 hours”. Besides, the Cell viability result with U87 cells [1] (10 µM, 24-hour treatment) is reported as “increase in cell viability”. In the data set on T98G cells [2] (24 and 72 hours), the “Initial reduction in cell viability” value was 25%. Besides, the “Additional reduction in cell viability” value in the data set with T98G cells [2] (through […]) is ~ 50%. In addition, in the data set with U87 cells [3], the “ATP levels compared to control” value is recorded as “increased”. In addition, the “Oxygen consumption rate (OCR)” value is listed as “significant increase” in the data set on U87 cells [4] (10 µM); “not seen” in the data set with U87 cells [4] (lower treatment concentration (1 µM)); “significantly increased” with T98G cells [5] (1 and 10 µM). Further, in the data set on T98G cells [5] (10 µM), the “Increase in OCR” value was 1.5 fold. Besides, the “Average colony size compared to control” value with U87 cells [6] and in the data set on T98G cells [7] was “significantly reduced” in each case. Further, the “Average number of colonies” value with U87 cells [6] is recorded as “reduced”; in the data set on T98G cells [7] it was “significantly reduced”. For the same compound, in the data set on T98G cells [8], the “Sample glucose compared to untreated cells” value is given as “significant increases”. This compound also showed an AUC in [9] of 2130 ng·h/mL.
